Laboratory results as given in ChEMBL document CHEMBL6109102, “Conjugation with the XJB peptide enhanced neuroprotective effect of honokiol via SIRT3 modulation” (Eur J Med Chem, 2025).
The source made the active and inactive calls. No cut-off for these calls is given here.

What was measured:
SH-SY5Y = assay: Cytotoxicity against human SH-SY5Y cells assessed as inhibition of cell viability at 100 uM incubated for 24 hrs by MTT assay; assay type: functional, cell-based
PC-12 [1] = assay: Cytotoxicity against rat PC12 cells assessed as inhibition of cell viability at 30 uM incubated for 24 hrs by MTT assay; assay type: functional, cell-based
PC-12 [2] = assay: Neuroprotective activity against H2O2-induced cell injury in rat PC12 cells assessed as cell viability at 2 uM incubated for 24 hrs by MTT assay; assay type: functional, cell-based
PC-12 [3] = assay: Cytoprotective activity against H2O2-induced cell injury in rat PC12 cells at 2.5 uM incubated with compound for 24 hrs followed by H2O2 addition and measured up to 96 hrs by Real-time cell analysis; assay type: functional, cell-based; settings: time <= 120.0 hrs
PC-12 [4] = assay: Inhibition of apoptosis in H2O2-induced rat PC12 cells assessed as viable cells at 1.25 uM incubated with compound for 24 hrs followed by H2O2 addition and measured after 24 hrs by Annexin V-FITC/PI staining based flow cytometry analysis (reference value: 91.4%); assay type: functional; settings: read-out: Activity
PC-12 [5] = assay: Inhibition of apoptosis in H2O2-induced rat PC12 cells assessed as early apoptotic cells at 1.25 uM incubated with compound for 24 hrs followed by H2O2 addition and measured after 24 hrs by Annexin V-FITC/PI staining based flow cytometry analysis (reference value: 1.09%); assay type: functional; design: scale not given: the % may be the effect or the level left
PC-12 [6] = assay: Inhibition of apoptosis in H2O2-induced rat PC12 cells assessed as late apoptotic cells at 1.25 uM incubated with compound for 24 hrs followed by H2O2 addition and measured after 24 hrs by Annexin V-FITC/PI staining based flow cytometry analysis (reference value: 2.64%); assay type: functional; design: scale not given: the % may be the effect or the level left
PC-12 [7] = assay: Inhibition of apoptosis in H2O2-induced rat PC12 cells assessed as necrotic cells at 1.25 uM incubated with compound for 24 hrs followed by H2O2 addition and measured after 24 hrs by Annexin V-FITC/PI staining based flow cytometry analysis (reference value: 4.05%); assay type: functional; design: scale not given: the % may be the effect or the level left
PC-12 [8] = assay: Inhibition of apoptosis in H2O2-induced rat PC12 cells assessed as viable cells at 2.5 uM incubated with compound for 24 hrs followed by H2O2 addition and measured after 24 hrs by Annexin V-FITC/PI staining based flow cytometry analysis (reference value: 91.4%); assay type: functional; settings: read-out: Activity
PC-12 [9] = assay: Inhibition of apoptosis in H2O2-induced rat PC12 cells assessed as early apoptotic cells at 2.5 uM incubated with compound for 24 hrs followed by H2O2 addition and measured after 24 hrs by Annexin V-FITC/PI staining based flow cytometry analysis (reference value: 1.09%); assay type: functional; design: scale not given: the % may be the effect or the level left
PC-12 [10] = assay: Inhibition of apoptosis in H2O2-induced rat PC12 cells assessed as late apoptotic cells at 2.5 uM incubated with compound for 24 hrs followed by H2O2 addition and measured after 24 hrs by Annexin V-FITC/PI staining based flow cytometry analysis (reference value: 2.64%); assay type: functional; design: scale not given: the % may be the effect or the level left
PC-12 [11] = assay: Inhibition of apoptosis in H2O2-induced rat PC12 cells assessed as necrotic cells at 2.5 uM incubated with compound for 24 hrs followed by H2O2 addition and measured after 24 hrs by Annexin V-FITC/PI staining based flow cytometry analysis (reference value: 4.05%); assay type: functional; design: scale not given: the % may be the effect or the level left
PC-12 [12] = assay: Inhibition of apoptosis in H2O2-induced rat PC12 cells assessed as viable cells at 5 uM incubated with compound for 24 hrs followed by H2O2 addition and measured after 24 hrs by Annexin V-FITC/PI staining based flow cytometry analysis (reference value: 91.4%); assay type: functional; settings: read-out: Activity
PC-12 [13] = assay: Inhibition of apoptosis in H2O2-induced rat PC12 cells assessed as early apoptotic cells at 5 uM incubated with compound for 24 hrs followed by H2O2 addition and measured after 24 hrs by Annexin V-FITC/PI staining based flow cytometry analysis (reference value: 1.09%); assay type: functional; design: scale not given: the % may be the effect or the level left
PC-12 [14] = assay: Inhibition of apoptosis in H2O2-induced rat PC12 cells assessed as late apoptotic cells at 5 uM incubated with compound for 24 hrs followed by H2O2 addition and measured after 24 hrs by Annexin V-FITC/PI staining based flow cytometry analysis (reference value: 2.64%); assay type: functional; design: scale not given: the % may be the effect or the level left
PC-12 [15] = assay: Inhibition of apoptosis in H2O2-induced rat PC12 cells assessed as necrotic cells at 5 uM incubated with compound for 24 hrs followed by H2O2 addition and measured after 24 hrs by Annexin V-FITC/PI staining based flow cytometry analysis (reference value: 4.05%); assay type: functional; design: scale not given: the % may be the effect or the level left
PC-12 [16] = assay: Anti-apoptotic activity in H2O2-induced rat PC12 cells assessed as increase in PARP protein expression at 1.25 to 5 uM by Western blot analysis; assay type: functional, cell-based; settings: dose 1.25-5 µM
Danio rerio = assay: Anti-alzheimer activity in scopolamine induced zebrafish alzheimer disease model assessed as increase in total swimming distance at 1.25 to 5 uM administered for 6 days post fertilization; assay type: functional, organism-based; settings: dose 1.25-5 µM, time 6.0 day
PC-12 [17] = assay: Neuroprotective activity against H2O2-induced cell injury in rat PC12 cells assessed as cell viability incubated for 24 hrs by MTT assay; assay type: functional, cell-based; settings: dose 0.37-30 µM

| SMILES | Activity (SH-SY5Y) | Activity (PC-12 [1]) | Activity (PC-12 [2]) | Activity (PC-12 [3]) | viability at 1.25 µM (PC-12 [4]) | Activity (PC-12 [5]) | Activity (PC-12 [6]) | Activity (PC-12 [7]) | viability at 2.5 µM (PC-12 [8]) | Activity (PC-12 [9]) | Activity (PC-12 [10]) | Activity (PC-12 [11]) | viability at 5 µM (PC-12 [12]) | Activity (PC-12 [13]) | Activity (PC-12 [14]) | Activity (PC-12 [15]) | Activity (PC-12 [16]) | Activity (Danio rerio) | Activity (PC-12 [17]) |
| --- | --- | --- | --- | --- | --- | --- | --- | --- | --- | --- | --- | --- | --- | --- | --- | --- | --- | --- | --- |
| CC(C)C[C@H](NC(=O)OC(C)(C)C)C(=O)N[C@H](Cc1ccccc1)C(=O)N1CCC[C@H]1C(=O)N[C@H](C(=O)N[C@@H](CCCNC(=O)OCc1ccccc1)C(=O)O)C(C)C | inactive | Active |  |  |  |  |  |  |  |  |  |  |  |  |  |  |  |  |  |
| C=CCc1ccc(OC)c(-c2ccc(OCCCNC(=O)[C@H](CCCNC(=O)OCc3ccccc3)NC(=O)[C@@H](NC(=O)[C@@H]3CCCN3C(=O)[C@@H](Cc3ccccc3)NC(=O)[C@H](CC(C)C)NC(=O)OC(C)(C)C)C(C)C)c(CC=C)c2)c1 |  | inactive |  |  |  |  |  |  |  |  |  |  |  |  |  |  |  |  |  |
| C=CCc1ccc(OCCCNC(=O)[C@H](CCCNC(=O)OCc2ccccc2)NC(=O)[C@@H](NC(=O)[C@@H]2CCCN2C(=O)[C@@H](Cc2ccccc2)NC(=O)[C@H](CC(C)C)NC(=O)OC(C)(C)C)C(C)C)c(-c2ccc(O)c(CC=C)c2)c1 |  | inactive | Active | Active | 76.6% | 17.2% | 4.86% | 1.4% | 83.9% | 11.6% | 2.87% | 1.66% | 86.8% | 8.97% | 2.69% | 1.58% | Active | Active | Dose-dependent-effect |
